Results published in the supplement of paper PMC13380429.

Experiments:
Conditions in all cases: 72 h
U2OS [1] = assay: cell viability relative to DMSO; higher = less toxic
Caco-2 [2] = assay: as above
HepG2 [3] = assay: as above
Calu-3 [4] = assay: as above
Vero E6 [5] = assay: as above
U2OS [6] = assay: drug sensitivity score (DSS) for viability; higher = more toxic; extreme values may be limits of the assay
Caco-2 [7] = assay: as above
HepG2 [8] = assay: as above
Calu-3 [9] = assay: as above
Vero E6 [10] = assay: as above
U2OS [11] = assay: relative viability EC50 (midpoint between 100% and the lowest measured viability); higher = less toxic
Caco-2 [12] = assay: as above
HepG2 [13] = assay: as above
Calu-3 [14] = assay: as above
Vero E6 [15] = assay: as above

| Compound | cell viability (U2OS [1]; 1 nM) [%] | cell viability (U2OS [1]; 10 nM) [%] | cell viability (U2OS [1]; 100 nM) [%] | cell viability (U2OS [1]; 1000 nM) [%] | cell viability (U2OS [1]; 10000 nM) [%] | cell viability (Caco-2 [2]; 1 nM) [%] | cell viability (Caco-2 [2]; 10 nM) [%] | cell viability (Caco-2 [2]; 100 nM) [%] | cell viability (Caco-2 [2]; 1000 nM) [%] | cell viability (Caco-2 [2]; 10000 nM) [%] | cell viability (HepG2 [3]; 1 nM) [%] | cell viability (HepG2 [3]; 10 nM) [%] | cell viability (HepG2 [3]; 100 nM) [%] | cell viability (HepG2 [3]; 1000 nM) [%] | cell viability (HepG2 [3]; 10000 nM) [%] | cell viability (Calu-3 [4]; 1 nM) [%] | cell viability (Calu-3 [4]; 10 nM) [%] | cell viability (Calu-3 [4]; 100 nM) [%] | cell viability (Calu-3 [4]; 1000 nM) [%] | cell viability (Calu-3 [4]; 10000 nM) [%] | cell viability (Vero E6 [5]; 1 nM) [%] | cell viability (Vero E6 [5]; 10 nM) [%] | cell viability (Vero E6 [5]; 100 nM) [%] | cell viability (Vero E6 [5]; 1000 nM) [%] | cell viability (Vero E6 [5]; 10000 nM) [%] | drug sensitivity score (U2OS [6]) | drug sensitivity score (Caco-2 [7]) | drug sensitivity score (HepG2 [8]) | drug sensitivity score (Calu-3 [9]) | drug sensitivity score (Vero E6 [10]) | relative viability EC50 (U2OS [11]) [µM] | relative viability EC50 (Caco-2 [12]) [µM] | relative viability EC50 (HepG2 [13]) [µM] | relative viability EC50 (Calu-3 [14]) [µM] | relative viability EC50 (Vero E6 [15]) [µM] |
| --- | --- | --- | --- | --- | --- | --- | --- | --- | --- | --- | --- | --- | --- | --- | --- | --- | --- | --- | --- | --- | --- | --- | --- | --- | --- | --- | --- | --- | --- | --- | --- | --- | --- | --- | --- |
| CC(C)[C@H](C(=O)Nc1ccc(C(=O)NO)cc1)c1ccccc1 [AR-42] | 98.9 | 97.3 | 86.5 | 15.4 | 0.3 | 101 | 95 | 97.6 | 18 | 1.2 | 91.7 | 103 | 75.3 | 18.6 | 0 | 96.5 | 90.5 | 83 | 36 | 12 | 97 | 95.4 | 88.7 | 5.2 | -0.1 | 17.2 | 15.3 | 18 | 14.2 | 18.9 | 0.328 | 0.498 | 0.271 | 0.371 | 0.26 |
| Nc1cc(C(Cl)=C(Cl)Cl)c(S(N)(=O)=O)cc1S(N)(=O)=O [clorsulon] | 96.9 | 97 | 100 | 97 | 102 | 94.8 | 90.5 | 98.5 | 93.8 | 102 | 100 | 106 | 94.2 | 101 | 100 | 90.1 | 97.6 | 104 | 97.2 | 101 | 105 | 106 | 96.8 | 102 | 100 | 0 | 0 | 0 | 0 | 0 | > 10 | > 10 | > 10 | > 10 | > 10 |
| O=C(/C=C/c1ccc(O)cc1)c1ccc(O)cc1O [isoliquiritigenin] | 97.3 | 99.7 | 103 | 98.2 | 94.9 | 102 | 92.1 | 95.6 | 92.2 | 86.4 | 102 | 107 | 91.9 | 101 | 96.5 | 103 | 93.7 | 107 | 107 | 112 | 99.4 | 107 | 93.6 | 104 | 113 | 0 | 0.2 | 0 | 0 | 0 | > 10 | > 10 | > 10 | > 10 | > 10 |
